Test results published in publication PMC5889738 (Biomaterials, 2018).

System: OCI-AML2 cells
Test: flow cytometry of apoptosis and live-dead cell staining
Format: cell-based, human
Conditions: OCI-AML2, 6 μM, 48 h

## COc1ccc(C2=N[C@@H](c3ccc(Cl)cc3)[C@@H](c3ccc(Cl)cc3)N2C(=O)N2CCNC(=O)C2)c(OC(C)C)c1 [Nutlin-3]
  apoptosis / sensitivity of OCI-AML2: significantly less sensitive
